20 molecules from patent US20210355104A1, “ADENOSINE RECEPTOR BINDING COMPOUNDS” (Nikang Therapeuticsm Inc., priority 2018, published 2021) can be followed below.

Structures are written as SMILES. “And” between values parts separate entries of the source, which are not always exact repeats. Equal entries are not always repeated.

For experiment [1], the target named is T1, Adenosine A2A receptor (Homo sapiens, UniProt P29274). Briefly: Adenosine A2A receptor competitive binding assay (Tag-lite HTRF). The note with it: Tag-lite adenosine A2A receptor ligand binding. The procedure, abridged:
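Compound displacement of a red fluorescent antagonist tracer (added at 60 nM stock) from donor-labelled, pre-transfected human A2A cells was read by HTRF after 2 h at room temperature; compound dilutions contained 0.6% DMSO.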

The target of experiment [2] is T1, Adenosine A2A receptor. Nature of the experiment: cAMP assay in 293A cells stably expressing the adenosine A2A receptor (CGS21680 stimulation, HTRF). In kind it is cell-based. The arrangement: expressed in transfected cells; host or cells: 293A cells (Invitrogen, Cat# R705-07) infected with A2A-expressing lentivirus (custom packaged by Biosettia), puromycin selected. The note with it: 293A-A2AR cells, 0.1% BSA. (In general: Cyclic AMP is a second messenger, typically raised through Gs and lowered through Gi signalling.)

Setting [3] is: 2 h room temperature, values separated by / are repeat determinations.
The mark [4] stands for this setting: 8 nM CGS, values separated by / are repeat determinations, read-out: cAMP (nM) 0.1% BSA, 8 nM CGS.
Setting [5] is: 1 uM CGS, values separated by / are repeat determinations, read-out: cAMP (nM) 0.1% BSA, 1 uM CGS.
The mark [6] stands for this setting: 8 nM CGS, read-out: cAMP (nM) 0.1% BSA, 8 nM CGS.
The mark [7] stands for this setting: 1 uM CGS, read-out: cAMP (nM) 0.1% BSA, 1 uM CGS.

T1 sequence (P29274 whole entry): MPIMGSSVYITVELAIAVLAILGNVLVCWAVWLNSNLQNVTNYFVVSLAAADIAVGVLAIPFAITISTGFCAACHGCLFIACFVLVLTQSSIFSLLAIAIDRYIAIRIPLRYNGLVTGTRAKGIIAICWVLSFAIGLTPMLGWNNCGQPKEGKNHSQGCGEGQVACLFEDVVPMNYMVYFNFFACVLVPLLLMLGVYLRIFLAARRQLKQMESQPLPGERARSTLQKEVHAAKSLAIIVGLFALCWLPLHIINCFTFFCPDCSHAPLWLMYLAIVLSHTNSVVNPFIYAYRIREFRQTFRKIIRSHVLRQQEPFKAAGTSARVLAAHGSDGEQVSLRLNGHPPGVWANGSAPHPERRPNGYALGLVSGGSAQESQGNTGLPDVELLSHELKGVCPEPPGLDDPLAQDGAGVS

For `Cc1cc(-c2c(OC[C@@H](O)CO)nc(N)nc2-c2ccc(F)cc2)cc(C(F)F)n1` [Example 83, (S)-3-((2-amino-5-(2-(difluoromethyl)-6-methylpyridin-4-yl)-6-(4-fluorophenyl)pyrimidin-4-yl)oxy)propane-1,2-diol], the IC50 on Adenosine A2A receptor [1] (setting [3]) is 13 nM; on Adenosine A2A receptor [2] (setting [4]), 2.9 nM and 7.3 nM and 22 nM; on Adenosine A2A receptor [2] (setting [5]), 1610 nM.

For the molecule `Cc1cc(-c2c(OCC(=O)NCC3CCOCC3)nc(N)nc2-c2ccc(F)cc2)cc(C(F)F)n1` [Example 160, 2-((2-amino-5-(2-(difluoromethyl)-6-methylpyridin-4-yl)-6-(4-fluorophenyl)pyrimidin-4-yl)oxy)-N-((tetrahydro-2H-pyran-4-yl)methyl)acetamide], the IC50 at Adenosine A2A receptor [1] (setting [3]) was determined as 336 nM; at Adenosine A2A receptor [2] (setting [4]) it was 184 nM.

For `Cc1cc(-c2c(OCc3ncc(C#N)n3C(C)C)nc(N)nc2-c2ccc(F)cc2)cc(C(F)F)n1` [Example 191, 2-(((2-amino-5-(2-(difluoromethyl)-6-methylpyridin-4-yl)-6-(4-fluorophenyl)pyrimidin-4-yl)oxy)methyl)-1-isopropyl-1H-imidazole-5-carbonitrile], the IC50 on Adenosine A2A receptor [1] (setting [3]) turned out to be 39 nM; at Adenosine A2A receptor [2] (setting [4]), 12 nM.

Regarding `Cc1cc(-c2c(OCc3nccn3C3CC3)nc(N)nc2-c2ccc(F)cc2)cc(C(F)F)n1` [Example 170, 4-((1-cyclopropyl-1H-imidazol-2-yl)methoxy)-5-(2-(difluoromethyl)-6-methylpyridin-4-yl)-6-(4-fluorophenyl)pyrimidin-2-amine], the IC50 was 1.1 nM (2×) and 2.9 nM on Adenosine A2A receptor [1] (setting [3]); 1.1 nM and 1.6 nM at Adenosine A2A receptor [2] (setting [4]); 33 nM at Adenosine A2A receptor [2] (setting [5]).

With `CCN(CC)C(=O)[C@H](C)Oc1nc(N)nc(-c2ccccc2)c1-c1cc(C)nc(C(F)(F)F)c1` [Example 14, (S)-2-((2-amino-5-(2-methyl-6-(trifluoromethyl)pyridin-4-yl)-6-phenylpyrimidin-4-yl)oxy)-N,N-diethylpropanamide], the IC50 at Adenosine A2A receptor [1] (setting [3]) was 900 nM; on Adenosine A2A receptor [2] (setting [4]) it was 10000 nM.

`COCCOc1nc(N)nc(-c2ccc(F)cc2)c1-c1cc(C)nc(C(F)F)c1` [Example 48, 5-(2-(difluoromethyl)-6-methylpyridin-4-yl)-4-(4-fluorophenyl)-6-(2-methoxyethoxy)pyrimidin-2-amine]: the IC50 on Adenosine A2A receptor [1] (setting [3]) is 3.7 nM; on Adenosine A2A receptor [2] (setting [4]), 0.72 nM and 0.18 nM.

As for `Cc1cc(-c2c(OCC3(CO)CCOCC3)nc(N)nc2-c2ccc(F)cc2)cc(C(F)F)n1` [Example 125, (4-(((2-amino-5-(2-(difluoromethyl)-6-methylpyridin-4-yl)-6-(4-fluorophenyl)pyrimidin-4-yl)oxy)methyl)tetrahydro-2H-pyran-4-yl)methanol], the IC50 at Adenosine A2A receptor [1] (setting [3]) is 18.1 nM; on Adenosine A2A receptor [2] (setting [4]), 8.7 nM; at Adenosine A2A receptor [2] (setting [5]), 1890 nM.

For `CCc1nnn(CC)c1COc1nc(N)nc(-c2ccc(F)cc2)c1-c1cc(C)nc(C(F)F)c1` [Example 202, 4-((1,4-diethyl-1H-1,2,3-triazol-5-yl)methoxy)-5-(2-(difluoromethyl)-6-methylpyridin-4-yl)-6-(4-fluorophenyl)pyrimidin-2-amine], the IC50 on Adenosine A2A receptor [1] (HTRF) was found to be 3.5 nM; on Adenosine A2A receptor [2] (setting [6]), 16 nM.

Regarding `Cc1cc(-c2c(OCc3nccn3C(C)C(=O)O)nc(N)nc2-c2ccc(F)cc2)cc(C(F)F)n1` (stereo not shown) [Example 205, 2-(2-(((2-amino-5-(2-(difluoromethyl)-6-methylpyridin-4-yl)-6-(4-fluorophenyl)pyrimidin-4-yl)oxy)methyl)-1H-imidazol-1-yl)propanoic acid], the IC50 on Adenosine A2A receptor [1] (HTRF) is 12 nM; on Adenosine A2A receptor [2] (setting [6]) it was 29 nM.

As to `COC(=O)NCc1nc(N)nc(-c2ccc(F)cc2)c1-c1cc(C)nc(C(F)F)c1` [Example 103, methyl((2-amino-5-(2-(difluoromethyl)-6-methylpyridin-4-yl)-6-(4-fluorophenyl)pyrimidin-4-yl)methyl)carbamate], the IC50 at Adenosine A2A receptor [1] (setting [3]) amounted to 47 nM; on Adenosine A2A receptor [2] (setting [4]), 11 nM.

Turning to `Cc1cc(-c2c(OCc3ccn(CC4CC4)n3)nc(N)nc2-c2ccc(F)cc2)cc(C(F)F)n1` [Example 214], the IC50 is 4.5 nM at Adenosine A2A receptor [1] (HTRF) and 327 nM at Adenosine A2A receptor [2] (setting [7]).

Consider `Cc1cc(-c2c(OCc3nccn3C3CCC3)nc(N)nc2-c2ccc(F)cc2)cc(C(F)F)n1` [Example 194, 4-((1-cyclobutyl-1H-imidazol-2-yl)methoxy)-5-(2-(difluoromethyl)-6-methylpyridin-4-yl)-6-(4-fluorophenyl)pyrimidin-2-amine], for which the IC50 on Adenosine A2A receptor [1] (setting [3]) is 0.6 nM and 1.7 nM; on Adenosine A2A receptor [2] (setting [4]) it was 1.5 nM; at Adenosine A2A receptor [2] (setting [5]), 151 nM.

On to `Cc1cc(-c2c(OCc3nc(C#N)cn3C(C)C)nc(N)nc2-c2ccc(F)cc2)cc(C(F)F)n1` [Example 203], for which the IC50 at Adenosine A2A receptor [1] (HTRF) came out at 3 nM; on Adenosine A2A receptor [2] (setting [6]), 9.6 nM.

With `Cc1cc(-c2c(OCC(CO)N(C)c3ccccn3)nc(N)nc2-c2ccc(F)cc2)cc(C(F)F)n1` (stereo not shown) [Example 199, 3-((2-amino-5-(2-(difluoromethyl)-6-methylpyridin-4-yl)-6-(4-fluorophenyl)pyrimidin-4-yl)oxy)-2-(methyl(pyridin-2-yl)amino)propan-1-ol], the IC50 was 7.2 nM at Adenosine A2A receptor [1] (HTRF) and 148 nM at Adenosine A2A receptor [2] (setting [7]).

As for `Cc1cc(-c2c(OCCN(C)c3cnccn3)nc(N)nc2-c2ccc(F)cc2)cc(C(F)F)n1` [Example 152, 5-(2-(difluoromethyl)-6-methylpyridin-4-yl)-4-(4-fluorophenyl)-6-(2-(methyl(pyrazin-2-yl)amino)ethoxy)pyrimidin-2-amine], the IC50 is 5.1 nM on Adenosine A2A receptor [1] (setting [3]) and 351 nM at Adenosine A2A receptor [2] (setting [5]).

In the case of `CNC(=O)COc1nc(N)nc(-c2ccccc2)c1-c1cc(C)nc(C(F)(F)F)c1` [Example 1, 2-((2-amino-5-(2-methyl-6-(trifluoromethyl)pyridin-4-yl)-6-phenylpyrimidin-4-yl)oxy)-N-methylacetamide], the IC50 at Adenosine A2A receptor [1] (setting [3]) was 11.1 nM; on Adenosine A2A receptor [2] (setting [4]), 40 nM and 17 nM; on Adenosine A2A receptor [2] (setting [5]), 4040 nM.

Turning to `Cc1cc(-c2c(OCCCS(C)(=O)=O)nc(N)nc2-c2ccc(F)cc2)cc(C(F)F)n1` [Example 46, 5-(2-(difluoromethyl)-6-methylpyridin-4-yl)-4-(4-fluorophenyl)-6-(3-(methylsulfonyl)propoxy)pyrimidin-2-amine], the IC50 is 5.7 nM and 5.9 nM at Adenosine A2A receptor [1] (setting [3]); 0.45 nM and 0.84 nM and 2.1 nM on Adenosine A2A receptor [2] (setting [4]); 1780 nM and 714 nM at Adenosine A2A receptor [2] (setting [5]).

As to `CCOC(=O)NCc1nc(N)nc(-c2ccccc2)c1-c1cc(C)nc(C(F)(F)F)c1` [Example 63, Ethyl((2-amino-5-(2-methyl-6-(trifluoromethyl)pyridin-4-yl)-6-phenylpyrimidin-4-yl)methyl)carbamate], the IC50 is 37 nM on Adenosine A2A receptor [1] (setting [3]) and 8.3 nM at Adenosine A2A receptor [2] (setting [4]).

In the case of `Cc1cc(-c2c(OC[C@H](C)O)nc(N)nc2-c2ccc(F)cc2)cc(C(F)F)n1` [Example 77, (S)-1-((2-amino-5-(2-(difluoromethyl)-6-methylpyridin-4-yl)-6-(4-fluorophenyl)pyrimidin-4-yl)oxy)propan-2-ol], the IC50 on Adenosine A2A receptor [1] (setting [3]) was 3.9 nM and 4.2 nM; at Adenosine A2A receptor [2] (setting [5]) it was 547 nM.

Regarding `Cc1cc(-c2c(OCC(=O)N(C)C)nc(N)nc2-c2ccccc2)cc(C(F)(F)F)n1` [Example 2, 2-((2-amino-5-(2-methyl-6-(trifluoromethyl)pyridin-4-yl)-6-phenylpyrimidin-4-yl)oxy)-N,N-dimethylacetamide], the IC50 on Adenosine A2A receptor [1] (setting [3]) is 30.5 nM; on Adenosine A2A receptor [2] (setting [4]), 6.8 nM and 3.4 nM.
